Assay results reported in patent publication US20060252048A1, “Method for testing ghrelin release” (priority 2003, published 2006).
Where no end group is shown, it is not given here. The star is where a group is joined. SO3H = O=S(=O)(O)*

Tested on: RF-48 cells
Test: ghrelin release from RF-48 cells measured by enzyme immunoassay
Format: cell-based, human
Conditions: 1 hour incubation with test compound, supernatant measured with EIA kit, compared with control and control+vehicle (FIG. 1)
Method: These test compounds were made as 100× stock solutions by dissolving them in pure ethanol, as a vehicle. The test compounds were then diluted 1/100 in the Leibovitz L-15 medium containing 0.5% foetal bovine serum (FBS).
Since the effect caused by these test compounds on ghrelin release by a RF-48 cell line was tested, RF-48 cells were grown during incubation at 37° C. in Leibovitz's L15 medium with 2 mM L-glutamine and containing 10% (vol/vol) FBS in the absence of CO2.
After cell confluence was obtained, the cells were plated in 24-well cultures plates (1×10^5 cells/well). Several wells were subsequently exposed to one of the test compounds as prepared above. For each type and concentration of test compound tested, a series of three tests was carried out.
After 1 hour of incubation of the thus-filled wells containing both the cells and the test compound at the same conditions as those applied during growing of the RF-48 cells, a sample was taken from each well to measure ghrelin release.
Each sample was centrifuged at 3000 rpm to remove the cells from the sample and the supernatant (containing the ghrelin formed as well as the medium and the test compound) was transferred to a separate tube. The ghrelin release was measured using a commercial enzyme immunoassay kit (from Phoenix Pharmaceuticals, Belmont, Calif., USA). […]

“Tyr(SO3H]27)Cholecystokinin fragment 26-33 Amide (DY(SO3H)MGWMDF-NH2; UniProt P06307 96-103, looked up) [CCK]” was tested, and the ghrelin release was “stimulate the release of ghrelin”.
